Outcome and PGE2 EC50 with compound data for 91 compounds are collected here from PubChem BioAssay AID1421 (Emory University Molecular Libraries Screening Center, 2008).

Active and inactive are the calls of the source. The rule behind the calls is not given here.

One test deals with Prostaglandin E2 receptor EP2 subtype (Homo sapiens) (UniProt P43116). Nature of the test: compounds shifting PGE2 potency at EP2 – cell-based, human EP2, PGE2 EC50 shift, dose response (AID 1421). Conditions: EP2-expressing cells, PGE2 EC50 shift by compound.
Chain of Prostaglandin E2 receptor EP2 subtype (Homo sapiens) (P43116 whole entry, looked up): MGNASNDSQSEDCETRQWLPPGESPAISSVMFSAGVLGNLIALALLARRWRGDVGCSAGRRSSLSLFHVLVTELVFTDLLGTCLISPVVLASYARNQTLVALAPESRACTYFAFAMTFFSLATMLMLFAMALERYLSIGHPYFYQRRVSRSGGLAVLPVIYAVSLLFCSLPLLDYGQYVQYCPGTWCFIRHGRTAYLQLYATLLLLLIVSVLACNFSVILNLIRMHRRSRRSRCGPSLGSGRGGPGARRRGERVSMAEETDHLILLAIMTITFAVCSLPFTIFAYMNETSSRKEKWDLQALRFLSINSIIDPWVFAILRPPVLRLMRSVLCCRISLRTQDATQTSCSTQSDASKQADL
With `CC(C)Cc1nc(N2CCCCC2)c(C#N)c2c1CCC2`, the outcome was active.

For the compound `C(=N/n1c2ccccc2c2ccccc21)/c1ccco1`, the result was active.

With `O=C(CSc1nnc(-c2ccc(Cl)cc2)n1Cc1ccco1)c1cccs1`, the result was active. Take `COc1cc(-c2nc(-c3cccc(C)c3)no2)cc(OC)c1OC`: the outcome was active.

For the compound `Cc1ccccc1C(=O)Nc1ccccc1N1CCCCC1`, the outcome was active. Same read-out and setting: as for `CC(C)OC(=O)c1c(NC(=O)CCn2nnc3ccccc32)sc2c1CCCC2`, the entry is “active”; as for `CCSc1cc(N2CCOCC2)nc(-c2ccc(Cl)cc2)n1`, “active”.

Regarding `CCCOc1ccc(Cl)cc1CNc1ccccc1`, the outcome was active.

The test is the same for the next values; noted with them: EP2-expressing cells, PGE2 EC50 shift by compound; measured here: PGE2 EC50 at 6.7 uM compound.
Consider `COc1cccc(OCC(=O)Nc2ccccc2-c2ccccc2)c1`, for which the PGE2 EC50 with compound was 1.17 nM. On to `Cc1ccc(C(C)C)c(OCc2ccc(-c3nnco3)cc2)c1`, for which the PGE2 EC50 with compound was 2.51 nM. Regarding `Cc1nc2ccccn2c1C(=O)CSc1ccc(Cl)cc1Cl`, the PGE2 EC50 with compound was 1.47 nM.

As to `O=[N+]([O-])c1ccc(Cl)c2c1C1C=CCC1C(c1ccccn1)N2` (centres undefined), the PGE2 EC50 with compound stood at 0.69 nM.

Consider `CCN(CC)CCN1C(=O)c2cccc3cc(N)cc(c23)C1=O`, for which the PGE2 EC50 with compound amounted to 2.64 nM.

Consider `Cc1ccc(Cn2ccc(=O)c(OCc3c(Cl)cccc3Cl)c2C)cc1`, for which the PGE2 EC50 with compound stood at 1.18 nM. In the case of `CC(C)Cc1nc(N2CCCCC2)c(C#N)c2c1CCC2`, the PGE2 EC50 with compound was 1.37 nM. `Cc1ccc(CN2C(=O)CN=C(c3ccccc3)c3ccccc32)cc1`: the PGE2 EC50 with compound came to 1.23 nM. As for `COC(=O)c1cc2ccsc2n1Cc1cccc(F)c1`, the PGE2 EC50 with compound is 0.95 nM. Turning to `CCOc1ccccc1Cn1c(=O)oc2ccc(C)cc21`, the PGE2 EC50 with compound is 1.09 nM. With `C(=N/n1c2ccccc2c2ccccc21)/c1ccco1`, the PGE2 EC50 with compound stood at 1.08 nM.

`Cc1ccccc1-c1n[nH]c(=S)n1/N=C/c1ccc(-c2ccccc2Br)o1`: the PGE2 EC50 with compound was 2.42 nM. In the case of `Clc1ccc(-c2nn3c(-c4ccccc4)nnc3s2)cc1`, the PGE2 EC50 with compound was found to be 0.93 nM. Still for that read-out and setting: then `CCOc1ccc(OCC)c(NC(=O)CN2CCN(c3cccc(C)c3)CC2)c1`, with 1.02 nM; and `CN(C)c1ncc(S(=O)(=O)c2ccc(Cl)cc2)c(-c2ccccc2)n1`, with 1.08 nM; and `O=S(=O)(c1ccccc1)c1nc(-c2ccco2)oc1N1CCCCCC1`, with 1.21 nM. Same read-out and setting: as for `Cc1ccccc1C(=O)Nc1ccccc1Sc1ccccc1`, the figure is 0.86 nM. Consider `CCOC(=O)c1c(CC(C)C)csc1/N=C/C1C(=O)CCCC1=O`, for which the PGE2 EC50 with compound is 1 nM. Same read-out and setting: as for `C=CCc1cc(C=O)cc(OC)c1OCc1ccc(Cl)cc1`, the figure is 0.57 nM; as for `COc1c2c(cc3occ(-c4ccc5c(c4)OCO5)c(=O)c13)OC(C)(C)C=C2`, 1.07 nM. Consider `O=C(CSc1nnc(-c2ccc(Cl)cc2)n1Cc1ccco1)c1cccs1`, for which the PGE2 EC50 with compound amounted to 2.65 nM. On the same count and under the same terms, as for `COc1ccc(C)c(Cn2c(-c3nonc3N)nc3ccccc32)c1`, the figure is 0.86 nM; as for `CCOC(=O)CC(=O)CSc1ncnc2c1oc1ccccc12`, 2.64 nM. For the compound `COc1cc(-c2nc(-c3cccc(C)c3)no2)cc(OC)c1OC`, the PGE2 EC50 with compound came to 1.14 nM. For the compound `Cc1cccc(-n2c(CCn3nc(C)c([N+](=O)[O-])c3C)n[nH]c2=S)c1`, the PGE2 EC50 with compound was found to be 2.79 nM. Consider `CN(/N=C/C=C/c1ccccc1)C1=NS(=O)(=O)c2ccccc21`, for which the PGE2 EC50 with compound worked out at 0.68 nM. In the case of `C=CCSc1nc2ccccc2c(=O)n1Cc1ccco1`, the PGE2 EC50 with compound is 0.91 nM. As for `Cn1c(=O)c2c(SCc3cccnc3)nc(CC(C)(C)C)nc2n(C)c1=O`, the PGE2 EC50 with compound is 2.57 nM.

Take `COc1ccc(-c2nc(NC(C)=O)sc2-c2ccc(OC)cc2)cc1`: the PGE2 EC50 with compound stood at 0.95 nM. Consider `O=C(CSc1ncnc2c1oc1ccccc12)Nc1ccccc1F`, for which the PGE2 EC50 with compound turned out to be 1.86 nM. As to `Fc1ccccc1Nc1nc2c(s1)CCc1ccccc1-2`, the PGE2 EC50 with compound was 1.03 nM.

As for `CCCOP(=O)(OCCC)c1nc(-c2ccccc2)oc1NCc1ccccc1`, the PGE2 EC50 with compound was 1.01 nM. Consider `CCC(C)(C)c1ccc(OCC(=O)N(C)C)c(C(C)(C)CC)c1`, for which the PGE2 EC50 with compound turned out to be 5.61 nM. Same read-out and setting: then `NC(N)=Nc1nc(CSCC/C(N)=N/S(N)(=O)=O)cs1`, with 0.78 nM; and `Cc1cc2ccc(C)c(C)c2nc1SCC#N`, with 1.18 nM. For `CCn1c2ccccc2c2cc(/C=N/n3c(C)nnc3C)ccc21`, the PGE2 EC50 with compound came out at 1.15 nM.

Regarding `CN(N=O)c1ccc(O)c(O)c1`, the PGE2 EC50 with compound came out at 1.26 nM.

In the case of `O=S(=O)(C=C(c1ccccc1)c1ccccc1)c1ccccc1`, the PGE2 EC50 with compound amounted to 2.7 nM. In the case of `N#CN=C1SCCS1`, the PGE2 EC50 with compound is 0.92 nM. As to `Cc1sc(NC(=O)c2cccs2)c(C(=O)OC(C)C)c1C`, the PGE2 EC50 with compound was 2.6 nM. Turning to `O=C(Oc1ccc(-c2nccc(-c3ccccn3)n2)cc1)c1cccc(C(F)(F)F)c1`, the PGE2 EC50 with compound is 1.44 nM. In the case of `Cc1cccc(C)c1NC(=O)CSc1nc(COc2ccccc2)nc2ccccc12`, the PGE2 EC50 with compound turned out to be 0.82 nM.

Take `CCOC(=O)CSc1nnc2n(C3CCCCC3)c(=O)c3c4c(sc3n12)CCCC4`: the PGE2 EC50 with compound turned out to be 1.13 nM. For `Cc1ccccc1S(=O)(=O)c1c(C)cc(C)n(CC(C)C)c1=O`, the PGE2 EC50 with compound turned out to be 2.47 nM.

As for `Cc1ccccc1C(=O)Nc1ccccc1N1CCCCC1`, the PGE2 EC50 with compound amounted to 1.41 nM. As to `Cc1sc(NC(=O)Cc2ccc3c(c2)OCO3)nc1-c1ccc2c(c1)CCN2C(=O)c1cccc(F)c1`, the PGE2 EC50 with compound was determined as 0.97 nM. The same measure, in the same setting: then `Cc1ccc(C2CC2c2n[nH]c(=S)n2-c2ccc(Cl)cc2)cc1` (centres undefined), with 1.23 nM; and `Cc1nc(NC(C)c2ccccc2)c2c3c(sc2n1)CCC3` (centres undefined), with 0.78 nM; and `Cc1ccc(S(=O)(=O)n2c3ccc(F)cc3c3nc(C)sc32)cc1`, with 0.84 nM. As to `CN(C)c1oc(-c2ccccc2Cl)nc1P(=O)(c1ccccc1)c1ccccc1`, the PGE2 EC50 with compound was found to be 1.17 nM.

With `Cc1cc(C)n(-c2nc(C)nc3c2cnn3-c2ccccc2)n1`, the PGE2 EC50 with compound was determined as 1.43 nM. `CC(C)Sc1nc2sc3c(c2c2nnc(SCC(=O)NCc4ccco4)n12)CCCC3`: the PGE2 EC50 with compound was 0.93 nM. Regarding `CCCC(=O)Nc1ccccc1Sc1ncnc2scc(-c3ccccc3)c12`, the PGE2 EC50 with compound was 1.07 nM. Same read-out and setting: as for `CCOC(=O)c1c(NC(=O)CN2C(=O)NC3(CCCCCC3)C2=O)sc(C)c1-c1ccc(C)cc1`, the figure is 0.76 nM; as for `CCCCCCn1c(COc2ccccc2F)nnc1SCC(=O)N1c2ccccc2NC(=O)C1(C)C`, 0.93 nM; as for `CCOC(=O)N1CCC(=C2c3ccc(Cl)cc3CCc3cccnc32)CC1`, 0.95 nM.

In the case of `CCN(CC)C(=O)c1nn(-c2ccccc2)c2c1C1CCC2(C)C1(C)C` (centres undefined), the PGE2 EC50 with compound was found to be 1.24 nM.

For `C=CCC(NCc1ccccc1)c1ccc(Cl)cc1` (centres undefined), the PGE2 EC50 with compound was determined as 1.14 nM.

Take `CCOC(=O)c1c(NC(=O)COC(=O)Cn2c(C)nc3ccccc32)sc2c1CCCC2`: the PGE2 EC50 with compound stood at 1.02 nM. Still for that read-out and setting: as for `COC(=O)c1cc2ccsc2n1Cc1ccccc1F`, the figure is 0.83 nM. For `CC(C)OC(=O)c1c(NC(=O)CCn2nnc3ccccc32)sc2c1CCCC2`, the PGE2 EC50 with compound was found to be 1 nM. Turning to `C#CCN1C(C)=C(C(=O)OC)C(c2cccc([N+](=O)[O-])c2)C(C(=O)OCC)=C1C` (centres undefined), the PGE2 EC50 with compound amounted to 2.62 nM. The same measure, in the same setting: then `C=CCSc1nccc(-c2cc(Cl)sc2Cl)n1`, with 1.07 nM; and `CCCN(CCC)C(C)C(=O)NCC1(c2ccccc2)CCCC1` (centres undefined), with 0.94 nM; and `COc1cc(CN2CCC(C(=O)N3CCN(c4ccccc4F)CC3)CC2)cc(OC)c1OC`, with 0.75 nM. The same measure, in the same setting: as for `Cc1nnc(SCC(=O)N2c3ccccc3C(C)(c3ccccc3)CC2(C)C)s1` (centres undefined), the figure is 0.85 nM; as for `CCSc1cc(N2CCOCC2)nc(-c2ccc(Cl)cc2)n1`, 0.69 nM. On to `Cc1ccc2nc(-c3ccncc3)cc(-c3ccccc3)c2c1`, for which the PGE2 EC50 with compound stood at 0.31 nM.

As for `c1ccc2c(c1)OCC(c1csc3ncnc(N4CCCCC4)c13)O2` (centres undefined), the PGE2 EC50 with compound came out at 2.54 nM. On to `O=c1oc2c3c4c(cc2c(C(F)(F)F)c1CCN1CCOCC1)CCCN4CCC3`, for which the PGE2 EC50 with compound amounted to 0.83 nM. Take `O=C1C2C(c3ccccc3)C=CC(c3ccccc3)C2C(=O)N1c1ccncc1` (centres undefined): the PGE2 EC50 with compound was 0.65 nM. Take `Cc1cccc(Cn2c(N3CCN(c4ccccc4)CC3)nc3c2c(=O)n(C)c(=O)n3C)c1`: the PGE2 EC50 with compound stood at 0.94 nM. With `Cc1cc(C)n(CCOc2ccc(Cl)cc2Cl)n1`, the PGE2 EC50 with compound turned out to be 0.63 nM. For the compound `O=C(COC(=O)c1ccc(S(=O)(=O)N2CCCC2)cc1)Nc1ccc(F)cc1F`, the PGE2 EC50 with compound amounted to 1.73 nM.

On to `CC1CN(c2nc3ccccc3cc2-c2ccccc2)CC(C)O1` (centres undefined), for which the PGE2 EC50 with compound is 0.53 nM. With `CC1=CC(C)(C)N(S(=O)(=O)c2ccc(C)cc2)c2cc(C)ccc21`, the PGE2 EC50 with compound stood at 1.17 nM. For `O=C(N=C1SCC(=O)N1c1ccccc1Cl)c1ccccc1`, the PGE2 EC50 with compound was determined as 1.03 nM. For the compound `C/C(=C\c1ccc(C(=O)O)cc1)c1ccc2c(c1)C(C)(C)CCC2(C)C`, the PGE2 EC50 with compound came out at 0.79 nM.

In the case of `CC(C)C1(C)N=C(c2ncccc2C(=O)O)NC1=O` (centres undefined), the PGE2 EC50 with compound is 2.52 nM. As for `CCCOc1ccc(Cl)cc1CNc1ccccc1`, the PGE2 EC50 with compound came out at 1.22 nM. `CCCCNCC(=O)Nc1sc(C)c(C)c1C(=O)OCC`: the PGE2 EC50 with compound amounted to 2.33 nM. For the compound `S=c1[nH]nc(-c2ccco2)n1/N=C/c1ccc(Cl)cc1Cl`, the PGE2 EC50 with compound stood at 1.06 nM. As to `O=C(Cc1c(F)cccc1Cl)Nc1ccccc1N1CCCCC1`, the PGE2 EC50 with compound was found to be 2.55 nM. As to `COc1ccc(N2CCN(c3nc4c(c(=O)[nH]c(=O)n4C)n3Cc3cccc(C)c3)CC2)cc1`, the PGE2 EC50 with compound came out at 0.7 nM.

On to `CCOC(=O)c1c(-c2cccs2)csc1NC(=O)CN1CCOCC1`, for which the PGE2 EC50 with compound turned out to be 0.99 nM. In the case of `CC(C)CCn1c(Oc2ccc(Cl)cc2)nc2c1c(=O)n(C)c(=O)n2C`, the PGE2 EC50 with compound is 0.72 nM. For `CCOC(=O)c1c(-c2ccccc2)oc2ccc(OC)cc12`, the PGE2 EC50 with compound came to 1.04 nM. The same measure, in the same setting: then `CCOC(=O)CCN(Cc1sccc1C)S(=O)(=O)c1ccc(F)cc1`, with 1.15 nM.

On to `C[C@H](C(=O)c1ccccc1)[C@@H](c1ccccc1)N1CCOCC1`, for which the PGE2 EC50 with compound stood at 1.43 nM. Regarding `COc1ccccc1C1c2[nH]c3ccccc3c2CCN1Cc1cnc(C)s1` (centres undefined), the PGE2 EC50 with compound was 1.59 nM. Turning to `Brc1ccc(Cn2c(-c3ccc(Br)o3)nc3ccccc32)o1`, the PGE2 EC50 with compound worked out at 2.59 nM.
